Data reported in PubChem BioAssay (NCI).
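Briefly, cells in 96-well plates were exposed to five compound concentrations for 48 h, and endpoints were estimated by linear interpolation. GI50 = concentration required for 50% inhibition of growth. Definition used: TGI = concentration required for complete inhibition of growth.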

What follows are compounds tested on K-562 leukemia (assay: growth of human tumour cells (NCI), 48 h).

Structure (SMILES)	TGI	GI50
CCCCCCCCCc1cc(=O)c2c(O)cccc2o1	> 100 µM	–
COc1cc2cn3c4ccc(O)cc4[nH]c(=O)c3c2cc1OC	1.68 µM	< 0.0117 µM
O=C(C[n+]1ccccc1)NNC(=O)/C(=C/c1ccc2c(c1)OCO2)NC(=O)c1ccccc1	> 100 µM	–
COc1ccc(/C=c2/sc3n(c2=O)C(c2ccc(OC)c(OC)c2)C2=C(N=3)c3cc(F)ccc3OC2)cc1 (stereo not given)	> 100 µM	19.9 µM
Clc1ccc(-c2c(C3=NCCN3)nnn2-c2ccc(Cl)cc2)cc1	35.9 µM	–
CC(C)(C)N1CC2(CCCCC2)C1=O	> 100 µM	–
Cc1cc(NC(=O)c2ccc(C)c(Nc3nccc(-c4cccnc4)n3)c2)cc(-n2cnc(C)c2)c1	4.03 µM	0.0915 µM
O=C(CCCN1CC=C(n2c(=O)[nH]c3ccccc32)CC1)c1ccc(F)cc1	> 100 µM	29.3 µM
CC(=O)c1c(CBr)n([O-])c2ccccc2[n+]1=O	12.5 µM	3.45 µM
COc1ccc(C2C(C#N)=C(N)OC3=C2COc2ccc(F)cc23)cc1OC (stereo not given)	> 100 µM	31.8 µM
CCCS(=O)(=O)Nc1ccc(Nc2c3ccccc3nc3ccccc23)c(OC)c1	> 42.7 µM	–
CCN(CC)CC(C)(C)C(=O)/C=C/c1ccc(Cl)c(Cl)c1	6.29 µM	1.1 µM

Each compound was assayed on OVCAR-4 ovarian (assay: growth of human tumour cells (NCI), 48 h).

Structure (SMILES)	TGI	GI50
CCCCCCCCCc1cc(=O)c2c(O)cccc2o1	> 100 µM	–
COc1cc2cn3c4ccc(O)cc4[nH]c(=O)c3c2cc1OC	2.11 µM	0.0594 µM
O=C(C[n+]1ccccc1)NNC(=O)/C(=C/c1ccc2c(c1)OCO2)NC(=O)c1ccccc1	> 94.5 µM	–
COc1ccc(/C=c2/sc3n(c2=O)C(c2ccc(OC)c(OC)c2)C2=C(N=3)c3cc(F)ccc3OC2)cc1 (stereo not given)	> 74.1 µM	> 23.2 µM
Clc1ccc(-c2c(C3=NCCN3)nnn2-c2ccc(Cl)cc2)cc1	> 100 µM	–
CC(C)(C)N1CC2(CCCCC2)C1=O	> 100 µM	–
Cc1cc(NC(=O)c2ccc(C)c(Nc3nccc(-c4cccnc4)n3)c2)cc(-n2cnc(C)c2)c1	2.19 µM	0.999 µM
O=C(CCCN1CC=C(n2c(=O)[nH]c3ccccc32)CC1)c1ccc(F)cc1	> 100 µM	30 µM
CC(=O)c1c(CBr)n([O-])c2ccccc2[n+]1=O	13.2 µM	3.78 µM
COc1ccc(C2C(C#N)=C(N)OC3=C2COc2ccc(F)cc23)cc1OC (stereo not given)	> 100 µM	24.9 µM
CCCS(=O)(=O)Nc1ccc(Nc2c3ccccc3nc3ccccc23)c(OC)c1	32.4 µM	–
CCN(CC)CC(C)(C)C(=O)/C=C/c1ccc(Cl)c(Cl)c1	3.2 µM	1.63 µM

What follows are compounds tested on OVCAR-8 ovarian (assay: growth of human tumour cells (NCI), 48 h).

Structure (SMILES)	TGI	GI50
CCCCCCCCCc1cc(=O)c2c(O)cccc2o1	> 100 µM	–
COc1cc2cn3c4ccc(O)cc4[nH]c(=O)c3c2cc1OC	1.53 µM	0.0319 µM
O=C(C[n+]1ccccc1)NNC(=O)/C(=C/c1ccc2c(c1)OCO2)NC(=O)c1ccccc1	> 85 µM	–
COc1ccc(/C=c2/sc3n(c2=O)C(c2ccc(OC)c(OC)c2)C2=C(N=3)c3cc(F)ccc3OC2)cc1 (stereo not given)	> 100 µM	40.2 µM
Clc1ccc(-c2c(C3=NCCN3)nnn2-c2ccc(Cl)cc2)cc1	> 100 µM	–
CC(C)(C)N1CC2(CCCCC2)C1=O	> 100 µM	–
Cc1cc(NC(=O)c2ccc(C)c(Nc3nccc(-c4cccnc4)n3)c2)cc(-n2cnc(C)c2)c1	13.7 µM	4.27 µM
O=C(CCCN1CC=C(n2c(=O)[nH]c3ccccc32)CC1)c1ccc(F)cc1	> 100 µM	32.9 µM
CC(=O)c1c(CBr)n([O-])c2ccccc2[n+]1=O	40.7 µM	18.1 µM
COc1ccc(C2C(C#N)=C(N)OC3=C2COc2ccc(F)cc23)cc1OC (stereo not given)	> 100 µM	28.5 µM
CCCS(=O)(=O)Nc1ccc(Nc2c3ccccc3nc3ccccc23)c(OC)c1	5.82 µM	–
CCN(CC)CC(C)(C)C(=O)/C=C/c1ccc(Cl)c(Cl)c1	3.91 µM	1.88 µM

These compounds were tested on RXF 393 renal (assay: growth of human tumour cells (NCI), 48 h).

Structure (SMILES)	TGI	GI50
CCCCCCCCCc1cc(=O)c2c(O)cccc2o1	> 100 µM	–
COc1cc2cn3c4ccc(O)cc4[nH]c(=O)c3c2cc1OC	1.49 µM	< 0.0122 µM
O=C(C[n+]1ccccc1)NNC(=O)/C(=C/c1ccc2c(c1)OCO2)NC(=O)c1ccccc1	> 83.9 µM	–
COc1ccc(/C=c2/sc3n(c2=O)C(c2ccc(OC)c(OC)c2)C2=C(N=3)c3cc(F)ccc3OC2)cc1 (stereo not given)	> 100 µM	> 100 µM
Clc1ccc(-c2c(C3=NCCN3)nnn2-c2ccc(Cl)cc2)cc1	75.8 µM	–
CC(C)(C)N1CC2(CCCCC2)C1=O	> 100 µM	–
Cc1cc(NC(=O)c2ccc(C)c(Nc3nccc(-c4cccnc4)n3)c2)cc(-n2cnc(C)c2)c1	4.88 µM	1.56 µM
O=C(CCCN1CC=C(n2c(=O)[nH]c3ccccc32)CC1)c1ccc(F)cc1	> 100 µM	19 µM
CC(=O)c1c(CBr)n([O-])c2ccccc2[n+]1=O	32.6 µM	15.3 µM
COc1ccc(C2C(C#N)=C(N)OC3=C2COc2ccc(F)cc23)cc1OC (stereo not given)	> 100 µM	69.3 µM
CCCS(=O)(=O)Nc1ccc(Nc2c3ccccc3nc3ccccc23)c(OC)c1	14.9 µM	–
CCN(CC)CC(C)(C)C(=O)/C=C/c1ccc(Cl)c(Cl)c1	3.1 µM	1.59 µM

What follows are compounds tested on UACC-62 melanoma (assay: growth of human tumour cells (NCI), 48 h).

Structure (SMILES)	TGI	GI50
CCCCCCCCCc1cc(=O)c2c(O)cccc2o1	> 100 µM	–
COc1cc2cn3c4ccc(O)cc4[nH]c(=O)c3c2cc1OC	2.33 µM	< 0.01 µM
O=C(C[n+]1ccccc1)NNC(=O)/C(=C/c1ccc2c(c1)OCO2)NC(=O)c1ccccc1	> 100 µM	–
COc1ccc(/C=c2/sc3n(c2=O)C(c2ccc(OC)c(OC)c2)C2=C(N=3)c3cc(F)ccc3OC2)cc1 (stereo not given)	> 63.3 µM	17.9 µM
Clc1ccc(-c2c(C3=NCCN3)nnn2-c2ccc(Cl)cc2)cc1	32.7 µM	–
CC(C)(C)N1CC2(CCCCC2)C1=O	> 100 µM	–
Cc1cc(NC(=O)c2ccc(C)c(Nc3nccc(-c4cccnc4)n3)c2)cc(-n2cnc(C)c2)c1	11 µM	2.92 µM
O=C(CCCN1CC=C(n2c(=O)[nH]c3ccccc32)CC1)c1ccc(F)cc1	> 100 µM	42.7 µM
CC(=O)c1c(CBr)n([O-])c2ccccc2[n+]1=O	28.6 µM	14.9 µM
COc1ccc(C2C(C#N)=C(N)OC3=C2COc2ccc(F)cc23)cc1OC (stereo not given)	44.3 µM	15.1 µM
CCCS(=O)(=O)Nc1ccc(Nc2c3ccccc3nc3ccccc23)c(OC)c1	13.1 µM	–
CCN(CC)CC(C)(C)C(=O)/C=C/c1ccc(Cl)c(Cl)c1	3.59 µM	1.66 µM
